Data taken from patent US20230293458A1, “MULTIBIOTIC AGENTS AND METHODS OF USING THE SAME” (Flagship Pioneering Innovations V, Inc., priority 2017, published 2023).

Experiments:
[1] = Assay 4. Fecal Incubation Stability; format: in vitro ADME; conditions: fecal slurry in YCFA media, anaerobic, 1 or 10 μM
Protocol: Assay 4. Fecal Incubation Stability. This assay can be used to assess the stability of a multibiotic agent in a large intestine. All experiments performed in an anaerobic chamber containing 90% nitrogen, 5% hydrogen and 5% carbon dioxide. Fecal matter in a slurry (15% (w/v)) was added to 96 well plates containing YCFA media or other suitable media (1.6 mL). Compounds were added to each individual well to reach a final analyte concentration of 1 or 10 μM, and the material was mixed by pipetting. At predetermined timepoints a sample was removed, quenched with acetonitrile, and analyzed by LC/MS.

[2] = Stability of multibiotic agents in Simulated Intestinal Fluid (SIF); format: in vitro ADME; conditions: simulated intestinal fluid pH 6.7 with pancreatin, 37° C., 1 μM
Method in brief: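 Compounds at 1 μM final (from 1 mM DMSO stock) incubated at 37 °C with agitation in fresh SIF (FaSSIF plus pancreatin in pH 6.7 phosphate buffer). Aliquots taken at T0 and regular intervals, quenched with 1 volume acetonitrile. Degradation rate determined by LC/MS.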

[3] = Stability of multibiotic agents in Simulated Gastric Fluid (SGF); format: in vitro ADME; conditions: simulated gastric fluid pH 1.6 with pepsin, 37° C., 1 μM
Method in brief: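 Compounds were incubated at 1 μM final at 37 °C in simulated gastric fluid containing NaCl, pH 1.6, with FaSSIF powder and 0.1 mg/mL pepsin. Aliquots were taken at T0 and at regular intervals and quenched with acetonitrile. Degradation rates were determined by LC/MS.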

[4] = Assay 1. Stability of multibiotic agents in a buffer; format: physicochemical; set-up: key to Assay 1 (% Remaining @ 24 hours): A: <25% of the tested compound remaining; B: 25-75% of the tested compound remaining; C: >75% of the tested compound remaining; D: no change in the amount of the tested compound; conditions: for degradation in Assay 1 (in words): buffer stability; for Assay 1 (% Remaining @ 24 hours): phosphate buffer pH 2, 4, 6 and 8, RT, 2 μM, LC/MS/MS
Protocol: Assay 1. Stability of multibiotic agents in a buffer. This assay can be used for the assessment of the stability of a multibiotic agent at different physiological pH levels.
Compounds were diluted in DMSO, and the resulting solution was added in the appropriate quantity to phosphate buffer (pH levels 2, 4, 6, and 8) to reach a total sample concentration of 2 μM. Compounds were incubated at RT, and aliquots were removed at time points 0, 60, 120, 360 and 1440 minutes and analyzed for purity by LC/MS/MS.

| Compound | Assay 4 (% Remaining at 24 h) [1] | Assay 3 (SIF) (% @ Remaining 4 hours) [2] | Assay 2 (SGF) (% Remaining @ 4 hours) [3] | degradation in Assay 1 (in words) [4] | Assay 1 (% Remaining @ 24 hours) [4] |
| --- | --- | --- | --- | --- | --- |
| CCCC(=O)O[C@@H]1[C@@H](OC(=O)CCC)[C@@H](Oc2ccc(N)cc2C(=O)O)OC[C@H]1OC(=O)CCC [Example 20, 5-amino-2-[(2R,3R,4S,5R)-3,4,5-tri(butanoyloxy)tetrahydropyran-2-yl]oxy-benzoic acid] | A (<25% of the tested compound remaining) | C (>75% of the tested compound remaining) | C (>75% of the tested compound remaining) |  |  |
| CCCC(=O)OC1OC[C@@H](OC(=O)CCC)[C@H](OC(=O)CCC)[C@H]1OC(=O)CCC (mixture of isomers) [Example 29, [(3R,4S,5R)-4,5,6-tri(butanoyloxy)tetrahydropyran-3-yl] butanoate] |  |  |  | no apparent degradation | D |
| O=C(CCCc1ccccc1)OC1OC[C@@H](OC(=O)CCCc2ccccc2)[C@H](OC(=O)CCCc2ccccc2)[C@H]1OC(=O)CCCc1ccccc1 (mixture of isomers) [Example 24, [(3R,4S,5R)-4,5,6-tris(4-phenylbutanoyloxy)tetrahydropyran-3-yl] 4-phenylbutanoate] |  |  |  | no apparent degradation | D |
| CCCC(=O)Oc1cc(OC(=O)CCC)c2c(c1)O[C@H](c1cc(OC(=O)CCC)c(OC(=O)CCC)c(OC(=O)CCC)c1)[C@H](OC(=O)c1cc(OC(=O)CCC)c(OC(=O)CCC)c(OC(=O)CCC)c1)C2 [Example 15, [(2R,3R)-5,7-di(butanoyloxy)-2-[3,4,5-tri(butanoyloxy)phenyl]chroman-3-yl] 3,4,5-tri(butanoyloxy)benzoate] | C (>75% of the tested compound remaining) | C (>75% of the tested compound remaining) | C (>75% of the tested compound remaining) |  |  |
| CCCC(=O)Oc1ccc2c(c1)oc(=O)c1cc(OC(=O)CCC)c(OC(=O)CCC)cc12 [Example 52, 8,9-di(butanoyloxy)-6-oxo-benzo[c]chromen-3-yl] butanoate] | A (<25% of the tested compound remaining) |  |  |  |  |
| CC(=O)Oc1cc(OC(C)=O)c2c(c1)O[C@H](c1cc(OC(C)=O)c(OC(C)=O)c(OC(C)=O)c1)[C@H](OC(=O)c1cc(OC(C)=O)c(OC(C)=O)c(OC(C)=O)c1)C2 [Example 16, [(2R,3R)-5,7-diacetoxy-2-(3,4,5-triacetoxyphenyl)chroman-3-yl] 3,4,5-triacetoxybenzoate] | A (<25% of the tested compound remaining) | A (<25% of the tested compound remaining) | C (>75% of the tested compound remaining) |  |  |
| CCCC(=O)O[C@H](C)CC(=O)O[C@H]1CO[C@H]2[C@@H]1OC[C@H]2OC(=O)C[C@@H](C)OC(=O)CCC [Example 79, [(3S,3aR,6R,6aR)-6-[(3R)-3-butanoyloxybutanoyl]oxy-2,3,3a,5,6,6a-hexahydrofuro[3,2-b]furan-3-yl] (3R)-3-butanoyloxybutanoate] | B (25-75% of the tested compound remaining) | B (25-75% of the tested compound remaining) | C (>75% of the tested compound remaining) |  |  |
| CCCC(=O)O[C@@H]1[C@@H](OC(=O)CCC)[C@H](Oc2ccc(N)cc2C(=O)O)OC[C@H]1OC(=O)CCC [Example 21, 5-amino-2-[(2S,3R,4S,5R)-3,4,5-tri(butanoyloxy)tetrahydropyran-2-yl]oxy-benzoic acid] |  | C (>75% of the tested compound remaining) | C (>75% of the tested compound remaining) | no apparent degradation | D |
| O=C(CCc1c[nH]c2ccccc12)Oc1ccc(/C=C/c2cc(OC(=O)CCc3c[nH]c4ccccc34)cc(OC(=O)CCc3c[nH]c4ccccc34)c2)cc1 [Example 71, [4-[(E)-2-[3,5-bis[3-(1H-indol-3-yl)propanoyloxy]phenyl]vinyl]phenyl] 3-(1H-indol-3-yl)propanoate] | C (>75% of the tested compound remaining) | C (>75% of the tested compound remaining) | C (>75% of the tested compound remaining) |  |  |
| CCCC(=O)OCCCNC(=O)[C@H](OC(=O)CCC)C(C)(C)COC(=O)CCC [Example 90, 3-[[(2R)-2,4-di(butanoyloxy)-3,3-dimethyl-butanoyl]amino] propyl butanoate] |  | A (<25% of the tested compound remaining) | C (>75% of the tested compound remaining) |  |  |
| CCCC(=O)O[C@H](C)CCOC(=O)C[C@@H](C)OC(=O)CCC [Example 173, [(3R)-3-butanoyloxybutyl] (3R)-3-butanoyloxybutanoate] |  | A (<25% of the tested compound remaining) | C (>75% of the tested compound remaining) |  |  |
| CCCC(=O)Oc1ccc(/C=C/c2cc(OC(=O)CCC)cc(OC(=O)CCC)c2)cc1 [Example 7, [4-[(E)-2-[3,5-di(butanoyloxy)phenyl]vinyl]phenyl] butanoate] |  | B (25-75% of the tested compound remaining) | C (>75% of the tested compound remaining) |  |  |
| O=C(Cc1c[nH]c2ccccc12)OC[C@H](OC(=O)Cc1c[nH]c2ccccc12)[C@@H](COC(=O)Cc1c[nH]c2ccccc12)OC(=O)Cc1c[nH]c2ccccc12 [Example 105, [(2R,3S)-2,3,4-tris[[2-(1H-indol-3-yl)acetyl]oxy]butyl] 2-(1H-indol-3-yl)acetate] |  | B (25-75% of the tested compound remaining) | C (>75% of the tested compound remaining) |  |  |
| CCCC(=O)O[C@H]1[C@@H](OC(=O)CCC)COC(O)[C@@H]1OC(=O)CCC (stereo partly drawn) [Example 140, [(3S,4S,5R)-4,5-di(butanoyloxy)-6-hydroxy-tetrahydropyran-3-yl] butanoate] |  | C (>75% of the tested compound remaining) | C (>75% of the tested compound remaining) |  |  |
| CC(=O)Oc1ccc(C2CC(=O)c3c(OC(C)=O)cc(OC(C)=O)cc3O2)cc1 (centres unmarked) [Example 170, [4-(5,7-diacetoxy-4-oxo-chroman-2-yl)phenyl] acetate] |  | A (<25% of the tested compound remaining) | C (>75% of the tested compound remaining) |  |  |
| CCCC(=O)O[C@H]1[C@H](OC(=O)CCC)[C@H](OC(=O)CCC)[C@@H](OC)[C@H](OC(=O)CCC)[C@H]1OC(=O)CCC [Example 85, (1R,2R,3R,4S,5R,6R)-2,3,4,6-tetrakis(butanoyloxy)-5-methoxycyclohexyl butanoate] |  | C (>75% of the tested compound remaining) | C (>75% of the tested compound remaining) |  |  |
